Numbers after ± are expanded uncertainties.
Assay: molar heat capacity at constant volume
Conditions: Fluid (supercritical or subcritical phases), Vacuum adiabatic calorimetry

CC(C)O [propan-2-ol]
Conditions	molar heat capacity at constant volume [J/K/mol]
509.12 K, Mass density=288.99 kg/m3	208.89 ± 6.2
509.12 K, Mass density=293.3 kg/m3	205.89 ± 6.2
509.12 K, Mass density=324.5 kg/m3	193.27 ± 5.8
509.13 K, Mass density=255.8 kg/m3	235.45 ± 7.1
509.21 K, Mass density=234.3 kg/m3	205.65 ± 6.2
509.21 K, Mass density=266.3 kg/m3	238.7 ± 7.2
509.21 K, Mass density=274 kg/m3	233.71 ± 7
509.21 K, Mass density=281.9 kg/m3	212.8 ± 6.4
509.22 K, Mass density=293.3 kg/m3	199.52 ± 6
509.31 K, Mass density=234.3 kg/m3	202.04 ± 6.1
509.31 K, Mass density=255.8 kg/m3	218.33 ± 6.6
509.31 K, Mass density=266.3 kg/m3	229.68 ± 6.9
509.31 K, Mass density=274 kg/m3	224.45 ± 6.7
509.31 K, Mass density=281.9 kg/m3	208.17 ± 6.2
509.31 K, Mass density=293.3 kg/m3	198.91 ± 5.9
509.35 K, Mass density=329.2 kg/m3	179.56 ± 5.4
509.4 K, Mass density=234.3 kg/m3	198.61 ± 5.9
509.4 K, Mass density=255.8 kg/m3	215.14 ± 6.5
509.4 K, Mass density=274 kg/m3	219.83 ± 6.6
509.41 K, Mass density=281.9 kg/m3	208.71 ± 6.2
509.41 K, Mass density=293.3 kg/m3	198.91 ± 5.9
509.45 K, Mass density=329.2 kg/m3	180.16 ± 5.4
509.49 K, Mass density=234.3 kg/m3	198.97 ± 5.9
509.49 K, Mass density=255.8 kg/m3	213.4 ± 6.4
509.49 K, Mass density=266.3 kg/m3	223.31 ± 6.7
509.49 K, Mass density=274 kg/m3	219.83 ± 6.6
509.49 K, Mass density=281.9 kg/m3	204.98 ± 6.1
509.55 K, Mass density=329.2 kg/m3	178.84 ± 5.3
509.59 K, Mass density=234.3 kg/m3	196.21 ± 5.9
509.59 K, Mass density=255.8 kg/m3	210.09 ± 6.3
509.59 K, Mass density=266.3 kg/m3	219.59 ± 6.6
509.59 K, Mass density=274 kg/m3	215.2 ± 6.5
509.59 K, Mass density=324.5 kg/m3	183.83 ± 5.5
509.64 K, Mass density=329.2 kg/m3	179.98 ± 5.4
509.68 K, Mass density=234.3 kg/m3	196.87 ± 5.9
509.68 K, Mass density=255.8 kg/m3	209.01 ± 6.2
509.68 K, Mass density=266.3 kg/m3	217 ± 6.5
509.68 K, Mass density=274 kg/m3	213.04 ± 6.4
509.68 K, Mass density=324.5 kg/m3	191.16 ± 5.8
509.77 K, Mass density=234.3 kg/m3	196.09 ± 5.9
509.77 K, Mass density=255.8 kg/m3	206.37 ± 6.2
509.77 K, Mass density=266.3 kg/m3	209.67 ± 6.3
509.77 K, Mass density=274 kg/m3	213.04 ± 6.4
509.77 K, Mass density=324.5 kg/m3	189.06 ± 5.6
509.79 K, Mass density=329.2 kg/m3	177.46 ± 5.3
509.86 K, Mass density=234.3 kg/m3	195.79 ± 5.9
509.86 K, Mass density=255.8 kg/m3	204.2 ± 6.1
509.86 K, Mass density=266.3 kg/m3	209.67 ± 6.3
509.86 K, Mass density=274 kg/m3	208.41 ± 6.2
509.86 K, Mass density=293.3 kg/m3	194.17 ± 5.8
509.87 K, Mass density=324.5 kg/m3	183.23 ± 5.5
509.96 K, Mass density=255.8 kg/m3	202.1 ± 6.1
509.96 K, Mass density=266.3 kg/m3	209.67 ± 6.3
509.96 K, Mass density=274 kg/m3	204.8 ± 6.1
509.96 K, Mass density=281.9 kg/m3	202.4 ± 6.1
509.96 K, Mass density=293.3 kg/m3	192.18 ± 5.8
509.96 K, Mass density=324.5 kg/m3	187.5 ± 5.6
509.99 K, Mass density=329.2 kg/m3	177.28 ± 5.3
510.05 K, Mass density=255.8 kg/m3	200 ± 6
510.05 K, Mass density=266.3 kg/m3	209.73 ± 6.3
510.05 K, Mass density=274 kg/m3	203.84 ± 6.1
510.05 K, Mass density=281.9 kg/m3	206.97 ± 6.2
510.05 K, Mass density=293.3 kg/m3	195.37 ± 5.9
510.05 K, Mass density=324.5 kg/m3	181.31 ± 5.5
510.05 K, Mass density=343.1 kg/m3	174.7 ± 5.2
510.14 K, Mass density=255.8 kg/m3	198.91 ± 5.9
510.14 K, Mass density=266.3 kg/m3	211.53 ± 6.4
510.14 K, Mass density=274 kg/m3	203.36 ± 6.1
510.14 K, Mass density=281.9 kg/m3	197.95 ± 5.9
510.14 K, Mass density=293.3 kg/m3	191.4 ± 5.8
510.14 K, Mass density=324.5 kg/m3	187.92 ± 5.6
510.14 K, Mass density=329.2 kg/m3	178.12 ± 5.3
510.14 K, Mass density=343.1 kg/m3	178.42 ± 5.3
510.23 K, Mass density=329.2 kg/m3	177.94 ± 5.3
510.24 K, Mass density=274 kg/m3	204.02 ± 6.1
510.24 K, Mass density=281.9 kg/m3	197.95 ± 5.9
510.24 K, Mass density=293.3 kg/m3	198.43 ± 5.9
510.24 K, Mass density=324.5 kg/m3	181.85 ± 5.5
510.24 K, Mass density=343.1 kg/m3	185.87 ± 5.6
510.33 K, Mass density=274 kg/m3	202.52 ± 6.1
510.33 K, Mass density=281.9 kg/m3	193.45 ± 5.8
510.33 K, Mass density=293.3 kg/m3	191.1 ± 5.8
510.33 K, Mass density=324.5 kg/m3	181.73 ± 5.5
510.33 K, Mass density=329.2 kg/m3	176.68 ± 5.3
510.33 K, Mass density=343.1 kg/m3	182.15 ± 5.5
510.42 K, Mass density=274 kg/m3	204.68 ± 6.1
510.42 K, Mass density=281.9 kg/m3	198.01 ± 5.9
510.42 K, Mass density=293.3 kg/m3	187.02 ± 5.6
510.42 K, Mass density=324.5 kg/m3	183.05 ± 5.5
510.42 K, Mass density=343.1 kg/m3	178.48 ± 5.3
510.48 K, Mass density=329.2 kg/m3	178.6 ± 5.3
510.51 K, Mass density=281.9 kg/m3	193.69 ± 5.8
510.52 K, Mass density=293.3 kg/m3	192.91 ± 5.8
510.52 K, Mass density=343.1 kg/m3	174.76 ± 5.2
510.61 K, Mass density=281.9 kg/m3	198.13 ± 5.9
510.61 K, Mass density=293.3 kg/m3	186.78 ± 5.6
510.61 K, Mass density=343.1 kg/m3	182.21 ± 5.5
510.7 K, Mass density=281.9 kg/m3	193.39 ± 5.8
510.7 K, Mass density=343.1 kg/m3	185.93 ± 5.6
510.79 K, Mass density=281.9 kg/m3	196.69 ± 5.9
510.79 K, Mass density=343.1 kg/m3	177.04 ± 5.3
510.89 K, Mass density=281.9 kg/m3	193.39 ± 5.8
510.98 K, Mass density=281.9 kg/m3	188.88 ± 5.6
511.07 K, Mass density=281.9 kg/m3	188.94 ± 5.6
511.16 K, Mass density=281.9 kg/m3	193.51 ± 5.8
511.26 K, Mass density=281.9 kg/m3	188.94 ± 5.6
511.35 K, Mass density=281.9 kg/m3	192.78 ± 5.8
511.44 K, Mass density=281.9 kg/m3	189 ± 5.6
511.53 K, Mass density=281.9 kg/m3	191.7 ± 5.8
515.15 K, Mass density=293.3 kg/m3	182.39 ± 5.5
515.24 K, Mass density=293.3 kg/m3	178.06 ± 5.3
515.33 K, Mass density=293.3 kg/m3	182.39 ± 5.5
515.42 K, Mass density=293.3 kg/m3	173.67 ± 5.2
515.51 K, Mass density=293.3 kg/m3	178.06 ± 5.3
515.61 K, Mass density=293.3 kg/m3	173.73 ± 5.2
515.7 K, Mass density=293.3 kg/m3	178.12 ± 5.3
515.79 K, Mass density=293.3 kg/m3	185.39 ± 5.6
515.88 K, Mass density=293.3 kg/m3	178.12 ± 5.3
515.98 K, Mass density=234.3 kg/m3	168.75 ± 5
515.98 K, Mass density=293.3 kg/m3	174.52 ± 5.2
516.07 K, Mass density=234.3 kg/m3	174.22 ± 5.2
516.16 K, Mass density=234.3 kg/m3	168.75 ± 5
516.25 K, Mass density=234.3 kg/m3	163.28 ± 4.9
516.34 K, Mass density=234.3 kg/m3	174.28 ± 5.2
516.44 K, Mass density=234.3 kg/m3	163.88 ± 4.9
516.53 K, Mass density=234.3 kg/m3	168.81 ± 5
516.62 K, Mass density=234.3 kg/m3	168.87 ± 5
516.71 K, Mass density=234.3 kg/m3	163.4 ± 4.9
516.71 K, Mass density=281.9 kg/m3	181.31 ± 5.5
516.81 K, Mass density=234.3 kg/m3	168.87 ± 5
516.81 K, Mass density=281.9 kg/m3	181.31 ± 5.5
516.9 K, Mass density=234.3 kg/m3	168.87 ± 5
516.9 K, Mass density=281.9 kg/m3	176.74 ± 5.3
516.99 K, Mass density=281.9 kg/m3	176.8 ± 5.3
517.08 K, Mass density=281.9 kg/m3	185.87 ± 5.6
517.18 K, Mass density=281.9 kg/m3	176.8 ± 5.3
517.27 K, Mass density=281.9 kg/m3	181.19 ± 5.5
517.54 K, Mass density=274 kg/m3	189.48 ± 5.7
517.64 K, Mass density=274 kg/m3	184.79 ± 5.5
517.73 K, Mass density=274 kg/m3	180.04 ± 5.4
517.82 K, Mass density=274 kg/m3	183.77 ± 5.5
517.91 K, Mass density=274 kg/m3	180.1 ± 5.4
518 K, Mass density=274 kg/m3	187.14 ± 5.6
518.07 K, Mass density=274 kg/m3	180.1 ± 5.4
518.1 K, Mass density=274 kg/m3	183.35 ± 5.5
518.28 K, Mass density=274 kg/m3	181.73 ± 5.5
518.37 K, Mass density=274 kg/m3	182.81 ± 5.5
518.47 K, Mass density=255.8 kg/m3	166.04 ± 5
518.56 K, Mass density=255.8 kg/m3	167.12 ± 5
518.65 K, Mass density=255.8 kg/m3	169.05 ± 5.1
518.74 K, Mass density=255.8 kg/m3	166.34 ± 5
518.83 K, Mass density=255.8 kg/m3	165.14 ± 5
518.93 K, Mass density=255.8 kg/m3	167.97 ± 5
519.02 K, Mass density=255.8 kg/m3	165.14 ± 5
519.11 K, Mass density=255.8 kg/m3	170.19 ± 5.1
519.2 K, Mass density=255.8 kg/m3	165.2 ± 5
519.29 K, Mass density=255.8 kg/m3	166.64 ± 5
519.39 K, Mass density=255.8 kg/m3	168.99 ± 5
521.23 K, Mass density=293.3 kg/m3	170.43 ± 5.1
521.32 K, Mass density=293.3 kg/m3	170.43 ± 5.1
521.41 K, Mass density=293.3 kg/m3	170.43 ± 5.1
521.5 K, Mass density=293.3 kg/m3	161.66 ± 4.9
521.59 K, Mass density=293.3 kg/m3	174.88 ± 5.2
521.68 K, Mass density=293.3 kg/m3	170.49 ± 5.1
521.78 K, Mass density=293.3 kg/m3	166.34 ± 5
521.87 K, Mass density=281.9 kg/m3	173.13 ± 5.2
521.87 K, Mass density=293.3 kg/m3	169.71 ± 5.1
521.96 K, Mass density=281.9 kg/m3	168.57 ± 5
522.05 K, Mass density=281.9 kg/m3	173.19 ± 5.2
522.14 K, Mass density=281.9 kg/m3	173.19 ± 5.2
522.23 K, Mass density=281.9 kg/m3	173.19 ± 5.2
522.33 K, Mass density=281.9 kg/m3	168.63 ± 5
522.42 K, Mass density=281.9 kg/m3	171.63 ± 5.2
522.51 K, Mass density=281.9 kg/m3	173.25 ± 5.2
522.6 K, Mass density=281.9 kg/m3	168.69 ± 5
524.07 K, Mass density=274 kg/m3	171.75 ± 5.2
524.16 K, Mass density=274 kg/m3	171.75 ± 5.2
524.25 K, Mass density=274 kg/m3	176.5 ± 5.3
524.34 K, Mass density=274 kg/m3	176.5 ± 5.3
524.43 K, Mass density=274 kg/m3	176.56 ± 5.3
524.53 K, Mass density=274 kg/m3	171.81 ± 5.2
524.62 K, Mass density=274 kg/m3	176.56 ± 5.3
524.71 K, Mass density=274 kg/m3	167.12 ± 5
524.8 K, Mass density=274 kg/m3	171.87 ± 5.2

Source: the NIST ThermoML archive (doi:10.1016/j.jct.2019.03.023)
